Source: the NIST ThermoML archive (doi:10.1021/je901065e)
± gives the expanded uncertainty stated by the source.

details: 298.15 K; 101.33 kPa; Liquid

mass density [kg/m3] | SMILES
1202.5 ± 1 | CCCC[n+]1ccccc1C.F[B-](F)(F)F [1-butyl-2-methylpyridinium tetrafluoroborate]
1183.1 ± 0.9 | CCCC[n+]1ccc(C)cc1.F[B-](F)(F)F [1-butyl-4-methylpyridinium tetrafluoroborate]
1214 ± 1 | CCCC[n+]1ccccc1.F[B-](F)(F)F [1-butylpyridinium tetrafluoroborate]
1154.8 ± 0.8 | CCCCCC[n+]1ccccc1.F[B-](F)(F)F [1-hexylpyridinium tetrafluoroborate]
873.4 ± 0.5 | c1ccccc1 [benzene]

SMILES | mass density [kg/m3]
Cc1ccccc1 [toluene] | 862.27 ± 0.53
